Results on 22 compounds are retold here after patent publication US20260337153A1, “IONIZABLE AMINE LIPIDS” (Intellia Therapeutics, Inc., priority 2023, published 2026).

The test system of the test is rat TTR gene. The test can be described thus: In vivo editing of TTR in rat liver after LNP delivery (NGS, % editing). The following applies: for Mean % editing in rat liver: NGS, dose 0.03 mpk, LNP with G000534 sgRNA and Cas9 mRNA 1:2 w/w, 3% C13 Ether (Compound 53: 3% PEG2K-DMG), N=5 (Compound 33: N=4). Details: species or system rat (Sprague-Dawley). The procedure, abridged:
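Four-component LNPs (ionizable amine lipid, DSPC, cholesterol, PEG lipid) carried Cas9 mRNA and a chemically modified sgRNA against rat TTR, made by impinging jet mixing at an N:P near 6. They were injected into the lateral tail vein of female Sprague-Dawley rats. Liver genomic DNA collected at 6 or 7 days was amplicon-sequenced on Illumina MiSeq to calculate percent indels.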

Where [1] appears, read: Experiment 7, 0.1 mpk, LNP with PEG2K-DMG.
Setting [2] is: Experiment 10, 0.1 mpk, LNP with PEG2K-DMG.
Setting [3] is: Experiment 11, 0.1 mpk, LNP with PEG2K-DMG.
Setting [4] is: Experiment 13, 0.03 mpk, LNP with PEG2K-DMG.
Setting [5] is: Table 8, 0.03 mpk, LNP with C13 Ether.
Setting [6] is: Experiment 1, 0.1 mpk, LNP with PEG2K-DMG.
[7] abbreviates: Experiment 2, 0.1 mpk, LNP with PEG2K-DMG.
Where [8] appears, read: Experiment 3, 0.1 mpk, LNP with PEG2K-DMG.
[9] abbreviates: Table 6, 0.03 mpk, PEG lipid C13 Ether.
Setting [10] is: Table 6, 0.03 mpk, PEG lipid C14 Ether.
Where [11] appears, read: Table 6, 0.03 mpk, PEG lipid PEG2K-DMG.

Structures are written as SMILES.

Consider `CCCCCCCCCCCC(=O)OCC(COC(=O)CCC(OCCCCCCCC)OCCCCCCCC)COC(=O)OCCCN(CC)CC` (centres unmarked) [Compound 41, 3-((4,4-bis(octyloxy)butanoyl)oxy)-2-((((3-(diethylamino)propoxy)carbonyl)oxy)methyl)propyl Dodecanoate], for which the Mean % editing under setting [1] is given as 5.8%.
With `CCCCCCCCOC(CCC(=O)OCC(COC(=O)CC(CCCC)CCCCCC)COC(=O)OCCCN(CC)CC)OCCCCCCCC` (centres unmarked) [Compound 43, 3-((4,4-bis(octyloxy)butanoyl)oxy)-2-((((3-(diethylamino)propoxy)carbonyl)oxy)methyl)propyl 3-butylnonanoate], the Mean % editing under setting [1] worked out at 57.5%.
On the same count and under the same terms, the value for `CCCCCCCCOC(CCC(=O)OCC(COC(=O)NCCN(CC)CC)COC(=O)C(CCCC)CCCCCC)OCCCCCCCC` (centres unmarked) [Compound 48, 3-((4,4-bis(octyloxy)butanoyl)oxy)-2-((((2-(diethylamino)ethyl)carbamoyl)oxy)methyl)propyl 2-butyloctanoate] was 55.0%.
In the case of `CCCCC/C=C\C/C=C\CCCCCCCC(=O)OCC(COC(=O)CCCC(=O)OC(CCCCCCCC)CCCCCCCC)COC(=O)N(C)CCN(CC)CC` (centres unmarked) [Compound 49, 3-(((2-(diethylamino)ethyl)(methyl)carbamoyl)oxy)-2-((((9Z,12Z)-octadeca-9,12-dienoyl)oxy)methyl)propyl heptadecan-9-yl Glutarate], the Mean % editing under setting [2] was found to be 47.1%.
Still for that read-out and setting: then `CCCCC/C=C\C/C=C\CCCCCCCC(=O)OCC(COC(=O)CCCC(=O)OC(CCCCCCCC)CCCCCCCC)COC(=O)NCCN1CCCCCC1` (centres unmarked) [Compound 50, 3-(((2-(azepan-1-yl)ethyl)carbamoyl)oxy)-2-((((9Z,12Z)-octadeca-9,12-dienoyl)oxy)methyl)propyl heptadecan-9-yl Glutarate], with 53.1%.
For the compound `CCCCCCCCC(CCCCCCCC)OC(=O)CCCCCC(=O)OCC(CCCCCCCCC(=O)OCC(CCCC)CCCCCC)COC(=O)NCCN(CC)CC` (centres unmarked) [Compound 51, 1-(11-((2-butyloctyl)oxy)-2-((((2-(diethylamino)ethyl)carbamoyl)oxy)methyl)-11-oxoundecyl) 7-(heptadecan-9-yl) heptanedioate], the Mean % editing under setting [3] is 60.0%.
As for `CCCCCCCCC(CCCCCCCC)OC(=O)CCCCCCC(=O)OCC(COC(=O)CCCCCCC(=O)OC(CCCCCCCC)CCCCCCCC)COC(=O)NCCN(CC)CC` [Compound 52, O′1,O1-(2-((((2-(diethylamino)ethyl)carbamoyl)oxy)methyl)propane-1,3-diyl) 8,8′-di(heptadecan-9-yl) di(octanedioate)], the “Mean % editing in rat liver” value turned out to be 11.9%. Under setting [4], this compound gave a Mean % editing of 9.0%. This compound registered a Mean % editing under setting [5] of 7.0%.
As for `CCCCC/C=C\C/C=C\CCCCCCCC(=O)OCC(COC(=O)CCC(OCCCCCCCC)OCCCCCCCC)COC(=O)OCCCN(CC)CC` (centres unmarked) [Compound 53], the “Mean % editing in rat liver” value turned out to be 9.9%. Further, the Mean % editing under setting [6] was 38.6%. Also, under setting [7], the Mean % editing is given as 55.2%. Under setting [8], this compound had a Mean % editing of 41.4%. Under “Experiment 4, 0.1 mpk, LNP with PEG2K-DMG”, this compound gave a Mean % editing of 41.8%. Besides, the Mean % editing (Experiment 5, 0.1 mpk, LNP with PEG2K-DMG) was found to be 42.8%. This compound also displayed a Mean % editing (Experiment 6, 0.1 mpk, LNP with PEG2K-DMG) of 47.1%. Besides, under setting [1], the Mean % editing is 31.5%. This compound returned a Mean % editing (Experiment 8, 0.1 mpk, LNP with PEG2K-DMG) of 47.8%. The compound further registered a Mean % editing (Experiment 9, 0.1 mpk, LNP with PEG2K-DMG) of 42.6%. The Mean % editing under setting [2] came out at 44.2%. Besides, the Mean % editing under setting [3] was 42.0%. Further, the Mean % editing under setting [4] was 8.5%. For the same compound, the Mean % editing under setting [9] is recorded as 7.5%. The Mean % editing under setting [10] was found to be 4.2%. The Mean % editing under setting [11] is given as 9.6%.
With `CCCCC/C=C\C/C=C\CCCCCCCC(=O)OCC(COC(=O)CCC(OCCCCCCCC)OCCCCCCCC)COC(=O)NCCN(CC)CC` (centres unmarked) [Compound 54], under setting [6], the Mean % editing was 36.9%.
`CCCCCCCCCOC(=O)CCCCCCCN(CCO)CCCCCCCC(=O)OC(CCCCCCCC)CCCCCCCC` [Compound 55] returned a Mean % editing under setting [3] of 13.2%.
Regarding `CCCCC/C=C\C/C=C\CCCCCCCC(=O)OCC(COC(=O)CCCC(=O)OC(CCCCCCCC)CCCCCCCC)COC(=O)OCCCN(CC)CC` (centres unmarked) [Compound 56], the Mean % editing reads like this: under setting [7], 50.9%; under setting [2], 53.0%.
For `CCCCC/C=C\C/C=C\CCCCCCCC(=O)OCC(COC(=O)CCCCCC(=O)OC(CCCCCCCC)CCCCCCCC)COC(=O)OCCCN(CC)CC` (centres unmarked) [Compound 57], the Mean % editing came out at 46.7% under setting [7] and 39.5% under setting [8].
In turn, `CCCCC/C=C\C/C=C\CCCCCCCC(=O)OCC(COC(=O)CCCC(=O)OC(CCCCCCCC)CCCCCCCC)COC(=O)NCCN(CC)CC` (centres unmarked) [Compound 58] came in with a Mean % editing under setting [6] of 44.7%, a Mean % editing under setting [7] of 60.4% and a Mean % editing under setting [2] of 56.5%.
For `CCCCC/C=C\C/C=C\CCCCCCCC(=O)OCC(COC(=O)CCCCCC(=O)OC(CCCCCCCC)CCCCCCCC)COC(=O)NCCN(CC)CC` (centres unmarked) [Compound 59], the Mean % editing runs as follows: under setting [6], 36.7%; under setting [7], 53.4%.
With `CCCCCCCCC(CCCCCCCC)OC(=O)CCCCCCC(=O)OCC(COC(=O)CCCCCCC(=O)OC(CCCCCCCC)CCCCCCCC)COC(=O)OCCCN(CC)CC` [Compound 60], the Mean % editing under setting [4] amounted to 8.1%, the Mean % editing under setting [9] came out at 10.1%, the Mean % editing under setting [10] worked out at 6.4% and the Mean % editing under setting [11] turned out to be 12.0%.
For the compound `CCCCCCCCC(CCCCCCCC)OC(=O)CCCCCCC(=O)OCC(COC(=O)CCCCCCC(=O)OC(CCCCCCCC)CCCCCCCC)COC(=O)NCCCN(CC)CC` [Compound 61], the Mean % editing under setting [4] was determined as 0.2%.
`CCCCCCCCC(CCCCCCCC)CC(=O)OCCC(=O)OCC(COC(=O)CCCC(=O)OC(CCCCCCCC)CCCCCCCC)COC(=O)NCCN(CC)CC` (centres unmarked) [Compound 63, 3-(((2-(diethylamino)ethyl)carbamoyl)oxy)-2-(((3-((3-octylundecanoyl)oxy)propanoyl)oxy)methyl)propyl heptadecan-9-yl Glutarate] displayed a Mean % editing under setting [5] of 0.1%.
As to `CCCCCCCCC(CCCCCCCC)OC(=O)CCCCCC(=O)OCC(COC(=O)CCCCCC(=O)OC(CCCCCCCC)CCCCCCCC)COC(=O)OCCCN1CCCC1` [Compound 64, 7,7′-di(heptadecan-9-yl) O′1,O1-(2-((((3-(pyrrolidin-1-yl)propoxy)carbonyl)oxy)methyl)propane-1,3-diyl) di(heptanedioate)], the “Mean % editing in rat liver” value is recorded as 2.0%.
Same read-out and setting: the value for `CCCCCCCCC(CCCCCCCC)OC(=O)CCCCCCC(=O)OCC(COC(=O)CCCCCCC(=O)OC(CCCCCCCC)CCCCCCCC)COC(=O)OCCCN1CCCC1` [Compound 65, 8,8′-di(heptadecan-9-yl) O′1,O1-(2-((((3-(pyrrolidin-1-yl)propoxy)carbonyl)oxy)methyl)propane-1,3-diyl) di(octanedioate)] was 4.5%.
On the same count and under the same terms, then `CCCCCCCCC(CCCCCCCC)OC(=O)CCCCCCC(=O)OCC(CC)(COC(=O)CCCCCCC(=O)OC(CCCCCCCC)CCCCCCCC)COC(=O)NCCN(CC)CC` [Compound 66, O′1,O1-(2-((((2-(diethylamino)ethyl)carbamoyl)oxy)methyl)-2-ethylpropane-1,3-diyl) 8,8′-di(heptadecan-9-yl) di(octanedioate)], with 9.5%; and `CCCCCCCCC(CCCCCCCC)OC(=O)CCCCCCC(=O)OCC(CC)(COC(=O)CCCCCCC(=O)OC(CCCCCCCC)CCCCCCCC)COC(=O)OCCCN1CCCC1` [Compound 67, O′1,O1-(2-ethyl-2-((((3-(pyrrolidin-1-yl)propoxy)carbonyl)oxy)methyl)propane-1,3-diyl) 8,8′-di(heptadecan-9-yl) di(octanedioate)], with 1.6%; and `CCCCCCCCC(CCCCCCCC)OC(=O)CCCCC(=O)OCC(COC(=O)CCCCC(=O)OC(CCCCCCCC)CCCCCCCC)COC(=O)NCCN(CC)CC` [Compound 68, O,O′-(2-((((2-(diethylamino)ethyl)carbamoyl)oxy)methyl)propane-1,3-diyl) di(heptadecan-9-yl) diadipate], with 17.1%.
